Reference: patent US4728656A, “2,2-alkyldiylbis(thio)bis(imidazoles) useful for inhibition of the 5-lipoxygenase pathway” (SmithKline Beckman Corporation, priority 1986, dated 1988)
Like-named read-outs stand apart in the source and are kept apart here. Each block holds one compound with its values, some of them ahead of it.

What was measured:
[1] = biological target: T1, 5-Lipoxygenase (Rattus norvegicus, UniProt P12527); test: Assay of 5-lipoxygenase activity in RBL-1 cell extract (high speed supernatant); type: biochemical; details: 25 μM arachidonic acid, 5 min at 37° C.
T1 construct: The broken cell extract was then centrifuged at 10,000×g for 20 minutes (min) and the supernatant centrifuge at 100,000×g for 60 min; host or cells: RBL-1 cells, high speed (100,000×g) supernatant
T1 sequence (P12527 1-673): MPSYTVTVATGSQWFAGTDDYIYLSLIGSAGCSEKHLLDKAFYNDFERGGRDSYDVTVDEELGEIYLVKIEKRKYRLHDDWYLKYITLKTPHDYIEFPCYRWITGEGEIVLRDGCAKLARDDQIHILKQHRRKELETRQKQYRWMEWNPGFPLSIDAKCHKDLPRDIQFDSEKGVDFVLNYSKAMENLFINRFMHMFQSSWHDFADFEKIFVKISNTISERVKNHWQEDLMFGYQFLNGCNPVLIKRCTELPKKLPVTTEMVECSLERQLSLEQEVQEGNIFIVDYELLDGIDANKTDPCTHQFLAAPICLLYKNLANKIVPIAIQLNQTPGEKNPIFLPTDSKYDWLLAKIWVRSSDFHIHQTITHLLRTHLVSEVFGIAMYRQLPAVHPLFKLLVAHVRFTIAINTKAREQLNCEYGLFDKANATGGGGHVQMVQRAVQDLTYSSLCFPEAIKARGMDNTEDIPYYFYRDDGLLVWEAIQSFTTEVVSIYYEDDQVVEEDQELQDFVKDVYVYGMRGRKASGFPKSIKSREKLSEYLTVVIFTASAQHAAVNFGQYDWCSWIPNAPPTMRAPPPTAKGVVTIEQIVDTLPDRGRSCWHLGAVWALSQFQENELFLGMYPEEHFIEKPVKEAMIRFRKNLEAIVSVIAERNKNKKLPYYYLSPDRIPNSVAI
Method: For in vitro experiments, compounds were dissolved at appropriate concentrations in ethanol (final concentration 1.0%) and then diluted to final concentrations using the buffers indicated in the text.
The activities of these enzymes in extracts of RBL-1 cells were assayed using the method of Jakschik and Lee, Nature, 287, 51-52 (1980). RBL--1 cells were obtained from the American Type Culture Collection (#CRL 1378) and were grown at 37° C. (5% CO2 in air) in spinner culture in MEM supplemented with 10% heat inactivated fetal calf serum. Harvested cells were washed with 50 mM sodium phosphate buffer, pH 7.0, containing 1 mM EDTA and 0.1% gelatin, resuspended in fresh buffer (5×10^7 cells/ml) and disrupted by nitrogen cavitation using the Parr bomb at 750 psi for 10 min. The broken cell extract was then centrifuged at 10,000×g for 20 minutes (min) and the supernatant centrifuge at 100,000×g for 60 min. Aliquots (0.25 mls) of the supernatant were preincubated with or without drugs for 10 min, after which 12 mM CaCl2 was added and the reaction was initiated with […] arachidonic acid-1-^14 C (final concentration was 25 μM; specific activity 20,000 dpm/nmole). After incubation for 5 min at 37° C., the reaction was terminated by addition of 2 volumes (0.5 ml) ice cold acetone and the sample was allowed to deproteinize on ice for 10 min prior to centrifugation at 1,000×g for 10 min. The deproteinized supernatant was adjusted to pH 3.5 with 2N formic acid and extracted with 2 volumes of ice cold ethyl acetate. The extracted samples were dried under argon, redissolved in ethyl acetate and applied to Whatman LK5D thin layer chromatography (TLC) plates which were developed using the A-9 solvent system [organic phase of ethyl acetate: 2,2,5-trimethylpentane:acetic acid:water (110:50:20:10)] described by Hamberg and Samuelsson, J. Biol. Chem., 241, 257-263 (1966). Arachidonic acid, 5-HETE, LTB4 and PGD2 were quantified with a Berthold LB 2832 autoscanner.
Under these conditions, only the 5-lipoxygenase pathway metabolites were detectable. The 5-HETE and di-HETEs were formed at a linear rate, and substantial amounts of the arachidonic acid-1-^14 C substrate were utilized.
Drug-induced effects on enzyme activities are described as the concentration of drug causing a 50% inhibition of metabolite synthesis (IC50).

[2] = test system: Arachidonic Acid-Induced Mouse Ear Inflammation; test: Arachidonic acid-induced mouse ear inflammation (ear swelling); type: in vivo, male Balb/c mice; set-up: key to % Inhibition of Ear Swelling: *: p < .05; **: p < .01; ***: p < .001; NS: not significant; details: p.o.
Method: In the following Examples male Balb/c mice (20-28 g) were used. All mice were obtained from Charles River Breeding Laboratories, Kingston, N.Y. Within a single experiment, mice were sex and age matched.
Compounds of Formula (I), indomethacin, naproxen, and ibuprofen were each used as the free base. The compounds were homogenized in 0.5% tragacanth. Compounds were administered by gavage at the indicated dose in a final volume of 10 ml/kg.
Arachidonic acid in acetone (2 mg/20 μl ) was applied to the inner surface of the left ear. The thickness of both ears was then measured with a dial micrometer one hour after treatment, and the data were expressed as the change in thickness (10^-3 cm) between treated and untreated ears.
Test compounds were given orally in 0.5% tragacanth at the times indicated in the text prior to the topical application of arachidonic acid.
Parenteral administration of compound was accomplished by subcutaneous injection of solution as indicated.

[3] = test system: psoriasis; details: Allen et al.; cited from earlier work
[4] = test system: lipoxygenase; details: in vitro; cited from earlier work
[5] = test system: LTB4 and 5-HETE production; details: in vitro; Stenson et al.; cited from earlier work
[6] = test system: rheumatoid arthritis; details: preliminary observation; Neumann et al.; cited from earlier work
[7] = test system: myocardial infarction; details: dogs; Mollane et al.; cited from earlier work
[8] = 5HETE production by RBL1 high speed supernatant, read-out: 5-HETE IC50
[9] = LTB4 production by RBL1 high speed supernatant, read-out: LTB4 IC50

IC50 [1, 8]: 18500 nM
IC50 [1, 9]: 3300 nM
Compound: Fc1ccc(-c2nc(SCCSc3nc(-c4ccc(F)cc4)c(-c4ccc(F)cc4)[nH]3)[nH]c2-c2ccc(F)cc2)cc1 [Compound 1, 2,2'-[ethanediylbis(thio)]bis[4,5-bis(4-fluorophenyl)-1H-imidazole]]

Compound: CC(C)Cc1ccc(C(C)C(=O)O)cc1 (stereo not shown) [ibuprofen]
antiinflammatory activity ([2]; 250 mg/kg): did not exhibit detectaole antiinflammatory activity

Compound: CC(C(=O)O)c1ccc2oc(-c3ccc(Cl)cc3)nc2c1 (stereo not shown) [benoxaprofen]
effect on psoriasis [3]: promising effect
lipoxygenase inhibitory activity [4]: in vitro lipoxygenase inhibitory activity

Compound: COc1ccc2cc([C@H](C)C(=O)O)ccc2c1 [naproxen]
antiinflammatory activity ([2]; 100 mg/kg): did not exhibit detectaole antiinflammatory activity

Compound: O=C(O)c1cc(/N=N/c2ccc(S(=O)(=O)Nc3ccccn3)cc2)ccc1O [Sulfasalazine]
inhibition of LTB4 and 5-HETE production [5]: inhibit LTB4 and 5-HETE production in vitro
efficacy in rheumatoid arthritic patients [6]: efficacy, including remission

IC50 [1, 8]: 1700 nM
IC50 [1, 9]: 650 nM
Compound: O=C(CSc1nc(-c2ccc(F)cc2)c(-c2ccncc2)[nH]1)CSc1nc(-c2ccc(F)cc2)c(-c2ccncc2)[nH]1 [Compound 2, 2-2'-[1,3-propan-2-onediylbis(thio)]bis[5-(4-pyridyl)-4-(4-fluorophenyl)-1H-imidazole]]
% Inhibition of Ear Swelling ([2]; Table I, 2 mg arachidonic acid, thickness 1 h after treatment): NS

IC50 [1, 8]: 5300 nM
IC50 [1, 9]: 1600 nM
Compound: O=C(CSc1nc(-c2ccc(F)cc2)c(-c2ccc(F)cc2)[nH]1)CSc1nc(-c2ccc(F)cc2)c(-c2ccc(F)cc2)[nH]1 [Compound 3, 2,2'-[1,3-propan-2-onediylbis(thio)]bis[4,5-bis-(4-fluorophenyl)-1H-imidazole]]

Compound: COc1ccc2c(c1)c(CC(=O)O)c(C)n2C(=O)c1ccc(Cl)cc1 [indomethacin]
antiinflammatory activity ([2]; 10 mg/kg): did not exhibit detectaole antiinflammatory activity

Compound: NC1=NN(c2cccc(C(F)(F)F)c2)CC1 [BW755-C]
area of infarction following coronary occlusion [7]: reduced
leukocyte infiltration into the ischaemic tissue [7]: inhibition of leukocyte infiltration into the ischaemic tissue
